This is an account of results in patent US20210153516A1, “COMPOSITION AND METHOD OF TREATING PLANTS AND PLANT PARTS WITH VOLATILE SPOILAGE ORGANISM CONTROLLING ACTIVES” (AGROFRESH INC., priority 2019, published 2021).

In test [1] the test system is B. cinerea (Botrytis cinerea or Gray mold). Briefly: B. cinerea infection assessment for blueberries after thermal fogging (Example 3). The test is classed as in vivo. The settings on record: untreated blueberries placed adjacent to treated blueberries one day after treatment, 10 mg active ingredient per kg. How it is done: (§1) The experiment was conducted by 1) setting up a 4.3 m^3 rectangular plastic tent, 2) placing blueberries in open clamshells in the tent, 3) preparing a foggable formulation by dissolving volatile compound into a solvent mixture containing 50% w/w propylene glycol, 47.8% w/w isopropyl alcohol, 2% w/w sorbitan mono-oleate, and 0.2% of citric acid to achieve about 10% w/w volatile compound, 4) inoculating the blueberries before treatment, 5) applying the formulation through a thermal fogger with set temperature at 200° C. and flow rate of about 70 ml/min, and target use rate of 10 mg active ingredient per kg of blueberries, and 6) storing the blueberries under refrigerated condition of about 4° C. after treatment, and at room temperature to incubate for observation of disease infections.
B. cinerea (Botrytis cinerea or Gray mold) infection was assessed at 4 and 13 days incubation time for both untreated blueberries in isolation and untreated blueberries placed adjacent to the treated blueberries one day after the treatment.

Test [2] concerns B. cinerea. In words: B. cinerea infection assessment for blueberries after thermal fogging (Example 4). The test is classed as in vivo, Botrytis cinerea. On the procedure: as §1
B. cinerea infection was assessed at 13, 16, and 24 days incubation time under room temperature shelf life conditions for both untreated blueberry in isolation, untreated blueberry placed adjacent to the treated blueberry six days after the treatment, and the treated blueberries.

For test [3], the system named is B. cinerea. Briefly: B. cinerea infection assessment for strawberries after dipping treatment. It is filed as in vivo, Botrytis cinerea. How it is done:
The experiment was conducted by 1) preparing a dipping treatment solution by dissolving volatile compound into 20% v/v isopropanol water solution to achieve 10 ppm concentration, 2) pre-inoculate all the strawberries before treatment, 3) dipping strawberries in the prepared solution for 30 seconds, 4) storing the strawberries under refrigerated conditions and at room temperature to incubate for disease observations. B. cinerea infection was assessed at 3 and 5 days incubation time for both untreated strawberries in isolation and untreated strawberries placed adjacent to the treated strawberries.

The test system of test [4] is Penicillium digitatum (Green mold) and Penicillium italicum (Blue mold). In words: Green mold and Blue mold infection assessment for mandarins after dipping treatment. The test is classed as in vivo. Particulars: equally mixed mandarins of untreated and treated (dip about 60 seconds); 10 days incubation at room temperature. On the procedure:
The experiment was conducted by 1) preparing a dipping treatment solution by diluting 360 ml concentrated formulation containing 10% w/w volatile compound, 45% w/w propylene glycol, 43.02% w/w isopropanol, 1.8% w/w sorbitan mono-oleate, 0.18% w/w citric acid into 60 L water, 2) dipping a box of mandarins into the treatment solution bath for about 60 seconds, 3) after air drying of the mandarins, preparing a box of mandarins containing 50% untreated mandarins and 50% treated mandarins, 4) storing the mandarins under 3-5° C. refrigerated conditions for 7 days, and then storing at room temperature with high humidity to incubate for disease observations. Penicillium digitatum (Green mold) and Penicillium italicum (Blue mold) infection incidence of the mandarins was assessed at 10 days incubation time under room temperature shelf life conditions for both untreated mandarins in isolation and equally mixed untreated and treated mandarins to simulate uneven drench or dip treatment applications.

The test system is the same in test [5]. Briefly: Green mold and Blue mold infection assessment for mandarins after spray treatment. The test is classed as in vivo. Particulars: equally mixed mandarins of untreated and treated (spray 60 ml treatment solution per box); 10 days incubation at room temperature. On the procedure:
The experiment was conducted by 1) preparing a spray treatment solution by diluting […] concentrated formulation containing 10% w/w volatile compound, 45% w/w propylene glycol, 43.02% w/w isopropanol, 1.8% w/w sorbitan mono-oleate, 0.18% w/w citric acid into 1 L water, 2) spraying a box of mandarins with the use rate of 60 ml treatment solution per box, 3) after air drying of the mandarins, preparing a box of mandarins containing 50% untreated mandarins and 50% treated mandarins, 4) storing the mandarins under 3-5° C. refrigerated conditions for 7 days, and then storing at room temperature with high humidity to incubate for disease observations. Penicillium Digitatum (Green mold) and Penicillium italicum (Blue mold) infection incidence of the mandarins was assessed at 10 days incubation time under room temperature shelf life conditions for both untreated mandarins in isolation and equally mixed untreated and treated mandarins to simulate uneven spray treatment applications.

Where [6] appears, read: treated blueberries, thermal fogging 10 mg active ingredient per kg, 13 days incubation.
Where [7] appears, read: treated blueberries, thermal fogging 10 mg active ingredient per kg, 16 days incubation.
Setting [8] is: treated blueberries, thermal fogging 10 mg active ingredient per kg, 24 days incubation.
Where [9] appears, read: untreated blueberries placed adjacent to treated blueberries 6 days after treatment, 13 days incubation.
[10] abbreviates: untreated blueberries placed adjacent to treated blueberries 6 days after treatment, 16 days incubation.
The mark [11] stands for this setting: untreated blueberries placed adjacent to treated blueberries 6 days after treatment, 24 days incubation.

Turning to `OB1OCc2cc(F)ccc21` [5-fluoro-1-hydroxy-3H-2,1-benzoxaborole], the B. cinerea incidence was 2.6% in test [1] (4 days incubation); 19.2% in test [1] (13 days incubation); 2.8% in the test with B. cinerea [2] (setting [6]); 2.8% in the test with B. cinerea [2] (setting [7]); 5.6% with B. cinerea [2] (setting [8]); 16.7% with B. cinerea [2] (setting [9]). The values for the B. cinerea incidence with B. cinerea [2] (setting [10]) and with B. cinerea [2] (setting [11]) were 23.0% and 33.3%, respectively. For the same compound, the B. cinerea severity in test [1] (4 days incubation) was found to be 0.2%; in test [1] (13 days incubation), 10.6%; in the test on B. cinerea [2] (setting [6]), 1.1%; in the test with B. cinerea [2] (setting [7]), 1.1%; in the test on B. cinerea [2] (setting [8]), 3.3%; in the test with B. cinerea [2] (setting [9]), 4.7%. In addition, the B. cinerea severity is on record as 6.2% in the test on B. cinerea [2] (setting [10]); 15.0% in the test with B. cinerea [2] (setting [11]); 0.0% in the test on B. cinerea [3] (treated strawberries, dipped 30 seconds in 10 ppm solution, 3 days incubation); 0.0% in the test with B. cinerea [3] (treated strawberries, dipped 30 seconds in 10 ppm solution, 5 days incubation); 5.4% in the test with B. cinerea [3] (untreated strawberries placed adjacent to treated strawberries, 3 days incubation); 43.8% in the test on B. cinerea [3] (untreated strawberries placed adjacent to treated strawberries, 5 days incubation). Further, the “Green and Blue mold incidence” value in test [4] worked out at 4.1%. Moreover, in test [5], the “Green and Gray molds incidence” value came to 0.64%.
